Our source for the Kd values is patent US10934274B2, “Quinoline derivatives as TAM RTK inhibitors” (Qurient Co., Ltd., priority 2015, dated 2021).

One test deals with T1, Mer (Homo sapiens, UniProt Q12866).
T1 construct: purchased Life Technologies
T1 sequence (Q12866 21-999): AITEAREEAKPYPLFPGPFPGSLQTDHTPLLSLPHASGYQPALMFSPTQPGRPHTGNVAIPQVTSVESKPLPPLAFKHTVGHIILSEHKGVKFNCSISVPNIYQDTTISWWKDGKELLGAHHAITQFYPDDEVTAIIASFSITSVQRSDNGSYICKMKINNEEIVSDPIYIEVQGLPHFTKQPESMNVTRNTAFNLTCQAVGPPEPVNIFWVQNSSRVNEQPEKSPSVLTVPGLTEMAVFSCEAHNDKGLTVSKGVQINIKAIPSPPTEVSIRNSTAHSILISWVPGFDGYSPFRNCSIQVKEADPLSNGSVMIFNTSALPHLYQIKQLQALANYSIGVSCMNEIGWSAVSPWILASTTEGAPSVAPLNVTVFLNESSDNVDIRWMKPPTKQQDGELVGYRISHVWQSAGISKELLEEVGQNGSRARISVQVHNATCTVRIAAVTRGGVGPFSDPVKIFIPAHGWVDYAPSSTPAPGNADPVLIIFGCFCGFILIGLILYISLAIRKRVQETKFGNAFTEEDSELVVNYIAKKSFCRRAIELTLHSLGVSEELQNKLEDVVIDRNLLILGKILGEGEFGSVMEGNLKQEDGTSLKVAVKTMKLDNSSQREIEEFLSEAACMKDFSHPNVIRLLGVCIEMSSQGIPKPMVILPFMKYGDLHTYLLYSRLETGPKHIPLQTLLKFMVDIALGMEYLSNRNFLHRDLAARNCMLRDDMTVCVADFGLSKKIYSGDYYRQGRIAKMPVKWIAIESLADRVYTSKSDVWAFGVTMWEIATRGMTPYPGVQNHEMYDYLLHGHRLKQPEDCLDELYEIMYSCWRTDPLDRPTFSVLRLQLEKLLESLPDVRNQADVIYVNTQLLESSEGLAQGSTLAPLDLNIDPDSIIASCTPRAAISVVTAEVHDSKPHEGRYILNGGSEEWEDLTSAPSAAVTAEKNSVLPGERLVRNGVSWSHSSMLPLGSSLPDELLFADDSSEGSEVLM
Put plainly: LanthaScreen Eu kinase binding assay, Mer. The note with it: Tracer 236. The protocol:
(§1) LanthaScreen® Eu Kinase Binding assays were conducted at Life Technologies using the manufacturer's specifications for each kinase indicated.
(§2) Briefly, the principle behind this assay is based upon the binding and displacement of an Alexa Fluor 647-labeled tracer to the kinase of interest. Binding of the tracer to the kinase is detected using an EU-labeled anti-tag antibody. Simultaneous binding of both the tracer and antibody to the kinase gives rise to a FRET-signal. Binding of an inhibitor to the kinase competes for binding with the tracer, resulting in a loss of FRET-signal.
(§3) Binding Assay Protocol for AXL, Mer, Tyro3 and Met
(§4) A given compound was diluted in DMSO to make a stock compound solution. The stock compound solution was serially diluted over eight steps in DMSO. Each diluted compound solution in DMSO was diluted in kinase buffer. Afterwards four kinds of working solution were prepared. First, Tracer-Working solution consists of Tracer 236 and Kinase Buffer. Second, Axl, Mer, Tyro3 or Met/anti-GST-AB-Working solution contained one of the kinases Axl, Mer, Tyro3, Met or anti-GST-AB (=anti glutathione-S-transferase antibody) in Kinase Buffer. Third, anti-GST-AB-Working solution was made with anti-GST-AB and Kinase Buffer. Last, in the DMSO-Working solution DMSO was added to Kinase Buffer to a final concentration to 3%. Each of the four kinds of working solutions were separately added to the assay plate and then incubated for 1 h at room temperature. After incubation, the assay plate was measured with respect to the FRET-Signal with the EnVision (Perkin Elmer) using the program LanthaHTRF-Assay. Data evaluation was done in the Quattro Workflow software.
(§5) Table 1 summarises the results obtained for AXL, Mer and Tyro3-kinases binding assays; table 2 summarises the results obtained for the Met kinase binding assay.

The next test deals with T2, Met (Homo sapiens, UniProt P08581).
T2 construct: purchased Life Technologies
T2 sequence (P08581 25-1390): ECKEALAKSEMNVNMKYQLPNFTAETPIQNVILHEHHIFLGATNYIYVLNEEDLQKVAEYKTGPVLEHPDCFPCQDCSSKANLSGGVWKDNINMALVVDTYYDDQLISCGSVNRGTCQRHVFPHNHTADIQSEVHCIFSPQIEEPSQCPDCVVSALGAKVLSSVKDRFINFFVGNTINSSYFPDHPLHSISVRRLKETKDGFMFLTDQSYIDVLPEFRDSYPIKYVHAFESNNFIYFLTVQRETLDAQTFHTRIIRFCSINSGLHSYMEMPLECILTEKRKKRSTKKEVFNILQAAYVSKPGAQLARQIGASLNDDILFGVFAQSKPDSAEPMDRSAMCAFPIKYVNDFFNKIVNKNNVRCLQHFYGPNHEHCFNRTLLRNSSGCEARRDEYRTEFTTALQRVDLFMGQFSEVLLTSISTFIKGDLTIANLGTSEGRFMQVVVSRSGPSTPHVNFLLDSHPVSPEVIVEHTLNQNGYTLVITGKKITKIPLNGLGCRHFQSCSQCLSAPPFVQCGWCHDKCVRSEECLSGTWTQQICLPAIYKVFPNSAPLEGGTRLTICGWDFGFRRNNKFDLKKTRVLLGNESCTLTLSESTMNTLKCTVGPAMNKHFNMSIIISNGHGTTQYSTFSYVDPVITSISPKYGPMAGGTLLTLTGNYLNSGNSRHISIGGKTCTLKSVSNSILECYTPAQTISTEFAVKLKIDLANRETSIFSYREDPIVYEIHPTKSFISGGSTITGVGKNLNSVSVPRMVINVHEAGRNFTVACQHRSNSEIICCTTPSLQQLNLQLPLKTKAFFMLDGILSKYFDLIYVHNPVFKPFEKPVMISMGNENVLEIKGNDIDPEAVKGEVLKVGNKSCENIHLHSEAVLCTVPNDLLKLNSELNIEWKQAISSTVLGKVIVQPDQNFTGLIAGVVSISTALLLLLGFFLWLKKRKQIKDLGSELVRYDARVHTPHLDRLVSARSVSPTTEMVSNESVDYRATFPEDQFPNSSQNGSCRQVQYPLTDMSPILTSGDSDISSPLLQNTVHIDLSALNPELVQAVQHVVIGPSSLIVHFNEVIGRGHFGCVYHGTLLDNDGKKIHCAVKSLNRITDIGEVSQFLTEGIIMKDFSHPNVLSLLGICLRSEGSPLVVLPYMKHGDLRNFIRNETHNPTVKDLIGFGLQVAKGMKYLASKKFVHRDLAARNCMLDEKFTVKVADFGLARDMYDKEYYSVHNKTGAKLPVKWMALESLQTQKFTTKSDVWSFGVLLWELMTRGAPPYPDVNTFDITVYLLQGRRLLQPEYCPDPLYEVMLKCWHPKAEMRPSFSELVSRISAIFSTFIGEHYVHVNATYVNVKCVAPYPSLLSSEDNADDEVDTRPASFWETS
Put plainly: LanthaScreen Eu kinase binding assay, Met. To be noted: Tracer 236, read-out: cMet kinase binding activity (Kd). How it is done: as §1, §2, §3, §4, §5
A general note: TR-FRET usually uses a lanthanide donor and a delayed reading to cut background.

Another test concerns the target T3, Axl (Homo sapiens, UniProt P30530).
T3 construct: purchased Life Technologies
T3 sequence (P30530 26-894): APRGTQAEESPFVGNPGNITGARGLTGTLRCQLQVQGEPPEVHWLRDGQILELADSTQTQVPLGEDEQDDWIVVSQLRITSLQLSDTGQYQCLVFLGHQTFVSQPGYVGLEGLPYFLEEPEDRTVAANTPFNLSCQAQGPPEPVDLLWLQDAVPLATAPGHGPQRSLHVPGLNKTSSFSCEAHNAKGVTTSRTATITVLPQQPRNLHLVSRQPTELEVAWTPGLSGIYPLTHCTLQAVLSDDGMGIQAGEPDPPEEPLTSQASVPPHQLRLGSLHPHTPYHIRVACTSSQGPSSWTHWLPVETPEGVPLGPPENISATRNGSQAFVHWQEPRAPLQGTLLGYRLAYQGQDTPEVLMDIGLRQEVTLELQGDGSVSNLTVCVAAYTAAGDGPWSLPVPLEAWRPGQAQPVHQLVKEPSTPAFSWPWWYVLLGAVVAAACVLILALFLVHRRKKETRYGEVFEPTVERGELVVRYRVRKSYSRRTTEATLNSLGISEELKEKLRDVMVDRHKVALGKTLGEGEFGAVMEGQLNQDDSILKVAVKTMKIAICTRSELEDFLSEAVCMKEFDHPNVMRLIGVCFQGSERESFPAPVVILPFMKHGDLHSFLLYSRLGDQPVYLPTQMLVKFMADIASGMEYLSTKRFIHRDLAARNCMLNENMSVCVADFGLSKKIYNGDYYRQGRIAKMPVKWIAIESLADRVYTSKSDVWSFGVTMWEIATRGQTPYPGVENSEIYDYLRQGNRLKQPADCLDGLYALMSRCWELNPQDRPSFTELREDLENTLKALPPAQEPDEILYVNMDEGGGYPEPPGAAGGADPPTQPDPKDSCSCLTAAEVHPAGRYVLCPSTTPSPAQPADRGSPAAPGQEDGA
Put plainly: LanthaScreen Eu kinase binding assay, Axl. The note with it: Tracer 236. How it is done: as §1, §2, §3, §4, §5

In the next test the target is T4, TYRO3 (Homo sapiens, UniProt Q06418).
T4 construct: purchased Life Technologies
T4 sequence (Q06418 41-890): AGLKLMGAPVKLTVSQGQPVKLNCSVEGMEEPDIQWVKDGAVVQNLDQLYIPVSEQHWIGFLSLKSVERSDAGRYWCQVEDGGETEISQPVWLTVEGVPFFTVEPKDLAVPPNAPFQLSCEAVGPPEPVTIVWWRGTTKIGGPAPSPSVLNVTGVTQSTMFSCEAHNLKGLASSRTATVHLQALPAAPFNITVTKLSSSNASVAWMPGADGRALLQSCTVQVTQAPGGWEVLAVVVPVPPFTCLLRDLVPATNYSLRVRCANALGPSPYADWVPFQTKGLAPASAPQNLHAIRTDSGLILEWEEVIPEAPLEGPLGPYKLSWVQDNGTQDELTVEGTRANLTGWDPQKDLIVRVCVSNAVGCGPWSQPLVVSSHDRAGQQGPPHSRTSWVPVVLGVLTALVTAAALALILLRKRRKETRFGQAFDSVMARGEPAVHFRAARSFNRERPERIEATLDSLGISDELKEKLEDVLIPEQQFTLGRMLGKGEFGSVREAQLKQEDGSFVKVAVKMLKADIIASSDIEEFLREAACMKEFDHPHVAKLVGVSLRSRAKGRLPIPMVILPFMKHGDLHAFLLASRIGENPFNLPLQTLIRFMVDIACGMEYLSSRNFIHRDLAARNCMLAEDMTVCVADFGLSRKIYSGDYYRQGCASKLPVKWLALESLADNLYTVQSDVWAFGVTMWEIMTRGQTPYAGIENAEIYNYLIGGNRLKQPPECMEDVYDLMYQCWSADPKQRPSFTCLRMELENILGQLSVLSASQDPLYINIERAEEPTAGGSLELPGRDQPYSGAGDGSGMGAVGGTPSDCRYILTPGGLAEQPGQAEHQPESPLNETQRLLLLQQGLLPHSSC
Put plainly: LanthaScreen Eu kinase binding assay, TYRO3. The note with it: Tracer 236. How it is done: as §1, §2, §3, §4, §5

In the case of `CCOc1cn(-c2cncnc2)nc1C(=O)Nc1ccc(Oc2ccnc3cc(OC)c(OC)cc23)cn1` [Compound 2], the Kd on Mer, at Met, on Axl and at TYRO3 was below 100 nM throughout.
As to `CCOc1cnn(-c2cncn2C)c1C(=O)Nc1ccc(Oc2ccnc3cc(OC)c(OC)cc23)cn1` [Compound 15], the equilibrium dissociation constant (Kd) at Mer is 100 to 1000 nM; on Met it was 100 to 1000 nM; at Axl, at least 1000 nM; at TYRO3, at least 1000 nM.
For the compound `CCOc1c[nH]nc1C(=O)Nc1ccc(Oc2ccnc3cc(OC)c(OC)cc23)cn1` [Compound 22], the Kd at Mer is below 100 nM; on Met, 100 to 1000 nM; on Axl, 100 to 1000 nM; at TYRO3, below 100 nM.
Take `CCOc1cn(-c2ccc(NC(C)C)cc2Cl)nc1C(=O)Nc1ccc(Oc2ccnc3cc(OC)c(OC)cc23)cn1` [Compound 24]: the dissociation constant (Kd) on Mer was below 100 nM; at Met, 100 to 1000 nM; at Axl, 100 to 1000 nM; at TYRO3, at least 1000 nM.
Turning to `CCOc1cnn(-c2ccoc2)c1C(=O)Nc1ccc(Oc2ccnc3cc(OC)c(OC)cc23)cn1` [Compound 25], the Kd on Mer was at least 1000 nM; at Met, at least 1000 nM; on Axl, 100 to 1000 nM; on TYRO3 it was at least 1000 nM.
Consider `CCOc1cnn(CC)c1C(=O)Nc1ccc(Oc2ccnc3cc(OC)c(OC)cc23)cn1` [Compound 28], for which the Kd at Mer was 100 to 1000 nM; at Met, 100 to 1000 nM; at Axl, 100 to 1000 nM; on TYRO3 it was at least 1000 nM.
In the case of `CCOc1cn(CC(N)=O)nc1C(=O)Nc1ccc(Oc2ccnc3cc(OC)c(OC)cc23)cn1` [Compound 35], the dissociation constant (Kd) was below 100 nM on Mer, at least 1000 nM on Met, 100 to 1000 nM on Axl and at least 1000 nM at TYRO3.
In the case of `CCOc1cnn(CCn2cccn2)c1C(=O)Nc1ccc(Oc2ccnc3cc(OC)c(OC)cc23)cn1` [Compound 42], the dissociation constant (Kd) was below 100 nM on Mer, 100 to 1000 nM at Met, 100 to 1000 nM at Axl and at least 1000 nM at TYRO3.
For `CCOc1nn(-c2cccnc2)cc1C(=O)Nc1ccc(Oc2ccnc3cc(OC)c(OC)cc23)cn1` [Compound 46], the dissociation constant Kd on Mer, on Met, at Axl and at TYRO3 was at least 1000 nM each time.
As to `CCOc1cn(-c2cccnc2)nc1C(=O)Nc1ncc(Oc2ccnc3cc(OC)c(OC)cc23)cn1` [Compound 47], the Kd on Mer is 100 to 1000 nM; at Met it was at least 1000 nM; at Axl, 100 to 1000 nM; on TYRO3, at least 1000 nM.
With `CCOc1cn(CCN(C)C)nc1C(=O)Nc1ccc(Oc2ccnc3cc(OC)c(OC)cc23)cn1` [Compound 49], the Kd on Mer was below 100 nM; at Met, 100 to 1000 nM; on Axl, 100 to 1000 nM; on TYRO3 it was 100 to 1000 nM.
Regarding `CCOc1cn(-c2ccc(C#N)nc2)nc1C(=O)Nc1ccc(Oc2ccnc3cc(OC)c(OC)cc23)cn1` [Compound 50], the dissociation constant (Kd) at Mer was at least 1000 nM; at Met it was at least 1000 nM; at Axl it was 100 to 1000 nM; on TYRO3, at least 1000 nM.
For `CCOc1cnn(CC2CCO2)c1C(=O)Nc1ccc(Oc2ccnc3cc(OC)c(OC)cc23)cn1` (stereo not drawn) [Compound 51], the dissociation constant (Kd) at Mer is 100 to 1000 nM; on Met, 100 to 1000 nM; at Axl, 100 to 1000 nM; at TYRO3 it was at least 1000 nM.
Consider `CCOc1cnn(CCN(C)C)c1C(=O)Nc1ccc(Oc2ccnc3cc(OC)c(OC)cc23)cn1` [Compound 52], for which the Kd on Mer, at Met, on Axl and at TYRO3 was at least 1000 nM throughout.
With `CCOc1cnn(-c2ccc(C#N)nc2)c1C(=O)Nc1ccc(Oc2ccnc3cc(OC)c(OC)cc23)cn1` [Compound 53], the dissociation constant (Kd) on Mer, on Met, at Axl and on TYRO3 was at least 1000 nM throughout.
`CCOc1cn(-c2cnc(C#N)cn2)nc1C(=O)Nc1ccc(Oc2ccnc3cc(OC)c(OC)cc23)cn1` [Compound 54]: the equilibrium dissociation constant (Kd) on Mer, on Met, on Axl and at TYRO3 was at least 1000 nM throughout.
Regarding `CCOc1cn(-c2cccnc2)nc1C(=O)Nc1cnc(Oc2ccnc3cc(OC)c(OC)cc23)nc1` [Compound 60], the Kd on Mer, on Met, on Axl and on TYRO3 was at least 1000 nM throughout.
On to `CCOc1cn(CC(=O)O)nc1C(=O)Nc1ccc(Oc2ccnc3cc(OC)c(OC)cc23)cn1` [Compound 62], for which the Kd at Mer is below 100 nM; on Met, at least 1000 nM; on Axl, 100 to 1000 nM; at TYRO3, at least 1000 nM.

As usually defined, the Kd is the constant that tells how readily two partners part at equilibrium.
